Source: patent US20130324522A1, “INSECT ODORANT RECEPTOR ANTAGONISTS” (THE ROCKEFELLER UNIVERSITY, priority 2010, published 2013)
Like-named read-outs stand apart in the source and are kept apart here.

Key:
Type in all cases: cell-based
OR8/OR7 = OR8/OR7 (Anopheles gambiae, UniProt Q7PUT5+Q7QCC7); test: Ca2+-imaging of stable HEK293T cell line OR8/OR7; details: for inhibition at 4 µM: HEK-293T, compound applied at 4 μM, read-out: Percent Inhibition OR8 OR7
Protocol: (§1) Full-length cDNAs for mosquito (Anopheles gambiae) odorant receptor (OR1, OR2, OR7, OR8, OR28), and fly (Drosophila melanogaster) odorant receptor (Or47a, Or83b), mouse TRP channel (TRPM8), and mouse serotonin receptor (5HT3) were obtained and subcloned into mammalian expression vectors. The following mammalian expression vectors were used:
(§2) Stable cell lines OR1/OR7, OR2/OR7, OR8/OR7, OR10/OR7, OR28/OR7 and TRPM8 were generated from HEK293T cells. HEK293T-based cell lines were cultured in DMEM supplemented with these additional antibiotics: 6 μg/mL blasticidin and 1 μg/mL puromycin, with the exception of the TRPM8 cell lines, which was cultured in DMEM supplemented with 1 μg/mL puromycin.
(§3) Cells were trypsinized and split into 35 mm dishes one day before transfection. Confluent cells (60-70%) in 35 mm dishes were transfected with 1 μg of insect OR(X) plasmids in pME18s-bla and 1 μg of OR7-pME18s-puro using lipofectamine 2000. For Anopheles odorant receptors, two plasmids were co-transfected into HEK cells: the ligand-specific receptor (OR1, OR2, OR8, OR28) and the corresponding olfactory co-receptor: OR7. Cell lines containing TRPM8 were transfected with single plasmid.
(§4) Stable cell lines were cultured in 10 cm dishes, and confluent cells (70-80%) were trypsinized. 10,000 cells/20 μL were transferred into each well of 384-well plates coated with poly-D-lysine, and cultured for 2 days. For Flip-In T-Rex cells (cell lines expressing Or47a/Or83b and 5HT3), 5 μL of tetracycline (5 μg/mL) were added 1 day before the assay. 20 μL of Ca-4 dye was loaded into each well for 1.5 hr at room temperature in the dark, and the dye-loaded plates were subjected to Ca^2+-imaging using a Hamamatsu FDSS6000 real time fluorescence plate reader. Odorant solutions (9× final concentration) were prepared by dissolving 1M stock solutions into Hank's Buffered Salt Solution (HBSS), and 30 μL of odor solution was transferred to each well in 384-well plates.
(§5) Compounds ([…] in DMSO) were stored in 384-well plates, and last two columns (32 wells total) contained only DMSO. 200 nL of small compounds were transferred into the odorant plates before the assay using the Perkin-Elmer Janus workstation. The odorant plates were spun down to remove air bubbles, and placed on the FDSS6000 plate loader, and 5 μL of odorant solution was applied to the cell plate on the FDSS6000. Ca^2+ increase was monitored with fluorescence at 525 nm by excitation at 485 nm.

OR28/OR7 = OR28/OR7 (Anopheles gambiae, UniProt A0A1S4GFY3+Q7QCC7); test: Ca2+-imaging of stable HEK293T cell line OR28/OR7; details: for inhibition at 4 µM: HEK-293T, compound applied at 4 μM, read-out: Percent Inhibition OR28 OR7
Protocol: as §1, §2, §3, §4, §5

Or47a/Or83b = target: T1, Or47a/Or83b (Drosophila melanogaster, UniProt P81921+Q9VNB5); test: Ca2+-imaging of stable Flip-In T-Rex cell line Or47a/Or83b; details: for inhibition at 4 µM: compound applied at 4 μM, read-out: Percent Inhibition OR47a OR83b
T1 construct: Full-length cDNAs for mosquito (Anopheles gambiae) odorant receptor (OR1, OR2, OR7, OR8, OR28), and fly (Drosophila melanogaster) odorant receptor (Or47a, Or83b); expressed in transfected cells
T1 sequence (P81921 1-385): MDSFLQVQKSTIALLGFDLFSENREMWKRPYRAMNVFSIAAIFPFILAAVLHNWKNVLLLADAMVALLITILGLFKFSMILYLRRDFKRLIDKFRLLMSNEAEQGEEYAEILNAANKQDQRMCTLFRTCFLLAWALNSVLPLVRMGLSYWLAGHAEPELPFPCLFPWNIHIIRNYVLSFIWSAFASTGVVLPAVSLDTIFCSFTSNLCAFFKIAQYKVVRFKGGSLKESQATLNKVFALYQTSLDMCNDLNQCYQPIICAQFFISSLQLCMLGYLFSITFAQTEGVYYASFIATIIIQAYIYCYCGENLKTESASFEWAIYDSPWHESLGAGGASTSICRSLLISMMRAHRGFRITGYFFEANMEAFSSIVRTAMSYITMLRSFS
T1 sequence (Q9VNB5 1-486): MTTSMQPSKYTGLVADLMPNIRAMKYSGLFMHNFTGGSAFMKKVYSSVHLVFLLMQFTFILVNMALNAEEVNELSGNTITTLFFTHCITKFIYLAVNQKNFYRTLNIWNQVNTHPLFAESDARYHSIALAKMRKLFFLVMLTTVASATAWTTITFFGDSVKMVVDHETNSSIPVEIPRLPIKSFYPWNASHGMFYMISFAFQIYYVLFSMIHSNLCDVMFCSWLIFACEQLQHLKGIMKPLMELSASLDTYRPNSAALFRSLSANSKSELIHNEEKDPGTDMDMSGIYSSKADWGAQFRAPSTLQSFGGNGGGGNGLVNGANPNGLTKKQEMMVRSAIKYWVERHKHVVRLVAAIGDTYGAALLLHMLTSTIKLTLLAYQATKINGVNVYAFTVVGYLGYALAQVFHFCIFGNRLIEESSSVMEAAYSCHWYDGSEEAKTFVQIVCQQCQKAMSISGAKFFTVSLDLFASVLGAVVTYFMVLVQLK
Protocol: as §1
Stable cell lines Or47a/Or83b and 5HT3 were generated from Flip-In T-Rex cells. Flip-In T-Rex-based cell lines were cultured in DMEM supplemented with these additional antibiotics: 6 μg/mL blasticidin and 100 μg/mL hygromycin.
Cells were trypsinized and split into 35 mm dishes 1 day before transfection. Confluent cells (60-70%) in 35 mm dishes were co-transfected with 1 μg of Or47a/Or83b plasmid in pcDNA5/FRT/TO/IRES plus the pOG44 plasmid or 1 μg of 5HT3 plasmid in pcDNA5/FRT/TO plus the pOG44 plasmid using lipofectamine 2000. Co-transfection of pOG44 and pcDNA5/FRT/TO/IRES or pcDNA5/FRT/TO allows expression of Flp recombinase and integration of the pcDNA5 plasmid into the genome via the FRT site. After one day of incubation, the transfected cells were transferred into 10 cm dishes with DMEM containing antibiotics: 20 μg/mL of hygromycin and 6 μg/mL of blasticidin. The concentration of Hygromycin was increased to 100 μg/mL when the population of cells became 30-40% confluent. The cells were cultured by changing medium every two days until cell clumps appeared. The clumps were picked and transferred into 96 well plates with DMEM containing 100 μg/mL of Hygromycin and 6 μg/mL of blasticidin. The cells were grown and transferred to 24 well plates, and ligand-evoked calcium increases were tested using the Hamamatsu FDSS6000 real time fluorescence plate reader.
as §4, §5

TRP channel (TRPM8) = target: T2, TRP channel (TRPM8) (Mus musculus, UniProt Q8R4D5); test: Ca2+-imaging of stable HEK293T cell line TRPM8; details: for inhibition at 4 µM: HEK-293T, compound applied at 4 μM, read-out: Percent Inhibition TRPM8
T2 construct: Full-length cDNAs for mosquito (Anopheles gambiae) odorant receptor (OR1, OR2, OR7, OR8, OR28), and fly (Drosophila melanogaster) odorant receptor (Or47a, Or83b), mouse TRP channel (TRPM8); expressed in transfected cells
Protocol: as §1, §2, §3, §4, §5

[1] = ligand pentyl acetate 30 μM, read-out: IC50 OR47a OR83b
[2] = ligand menthol 300 μM, read-out: IC50 TRPM8

Sequence of OR8/OR7 (Q7QCC7 whole entry): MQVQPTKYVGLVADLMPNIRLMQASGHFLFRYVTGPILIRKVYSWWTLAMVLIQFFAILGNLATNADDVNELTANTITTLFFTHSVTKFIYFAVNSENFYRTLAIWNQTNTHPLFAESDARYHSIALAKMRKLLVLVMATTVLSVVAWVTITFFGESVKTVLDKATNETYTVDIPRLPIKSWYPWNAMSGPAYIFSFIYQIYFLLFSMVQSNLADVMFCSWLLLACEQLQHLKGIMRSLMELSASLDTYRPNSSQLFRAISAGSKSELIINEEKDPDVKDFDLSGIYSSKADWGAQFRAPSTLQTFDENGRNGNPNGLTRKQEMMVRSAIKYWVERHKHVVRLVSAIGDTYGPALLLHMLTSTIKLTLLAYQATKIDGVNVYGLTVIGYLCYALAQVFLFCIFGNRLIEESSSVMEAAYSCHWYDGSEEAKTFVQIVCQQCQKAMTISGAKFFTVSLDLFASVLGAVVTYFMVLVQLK
Sequence of OR8/OR7 (Q7PUT5 entry or part of it): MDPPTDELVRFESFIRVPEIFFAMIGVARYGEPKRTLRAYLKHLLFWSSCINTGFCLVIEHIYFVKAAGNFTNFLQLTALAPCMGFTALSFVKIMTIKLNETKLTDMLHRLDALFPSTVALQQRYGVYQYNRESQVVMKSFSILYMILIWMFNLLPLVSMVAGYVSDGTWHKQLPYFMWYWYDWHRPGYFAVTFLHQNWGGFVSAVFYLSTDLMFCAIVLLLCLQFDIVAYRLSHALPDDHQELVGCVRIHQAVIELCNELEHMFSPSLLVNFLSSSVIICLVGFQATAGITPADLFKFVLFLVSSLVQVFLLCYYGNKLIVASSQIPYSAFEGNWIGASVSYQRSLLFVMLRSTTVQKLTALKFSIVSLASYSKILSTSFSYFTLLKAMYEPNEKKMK
Sequence of OR28/OR7 (A0A1S4GFY3 entry or part of it): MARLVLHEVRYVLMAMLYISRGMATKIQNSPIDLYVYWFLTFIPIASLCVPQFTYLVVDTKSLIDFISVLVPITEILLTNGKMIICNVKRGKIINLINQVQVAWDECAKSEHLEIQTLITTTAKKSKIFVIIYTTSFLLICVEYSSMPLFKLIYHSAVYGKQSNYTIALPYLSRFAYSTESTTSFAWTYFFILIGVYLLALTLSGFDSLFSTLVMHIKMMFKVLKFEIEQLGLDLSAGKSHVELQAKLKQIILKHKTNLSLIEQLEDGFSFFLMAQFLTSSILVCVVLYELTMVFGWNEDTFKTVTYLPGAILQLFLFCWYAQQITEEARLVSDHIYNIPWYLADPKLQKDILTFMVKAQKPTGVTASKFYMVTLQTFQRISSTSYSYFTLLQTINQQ
Sequence of OR28/OR7 (Q7QCC7 whole entry): as the sequence (Q7QCC7 whole entry) above
T2 sequence (Q8R4D5 whole entry): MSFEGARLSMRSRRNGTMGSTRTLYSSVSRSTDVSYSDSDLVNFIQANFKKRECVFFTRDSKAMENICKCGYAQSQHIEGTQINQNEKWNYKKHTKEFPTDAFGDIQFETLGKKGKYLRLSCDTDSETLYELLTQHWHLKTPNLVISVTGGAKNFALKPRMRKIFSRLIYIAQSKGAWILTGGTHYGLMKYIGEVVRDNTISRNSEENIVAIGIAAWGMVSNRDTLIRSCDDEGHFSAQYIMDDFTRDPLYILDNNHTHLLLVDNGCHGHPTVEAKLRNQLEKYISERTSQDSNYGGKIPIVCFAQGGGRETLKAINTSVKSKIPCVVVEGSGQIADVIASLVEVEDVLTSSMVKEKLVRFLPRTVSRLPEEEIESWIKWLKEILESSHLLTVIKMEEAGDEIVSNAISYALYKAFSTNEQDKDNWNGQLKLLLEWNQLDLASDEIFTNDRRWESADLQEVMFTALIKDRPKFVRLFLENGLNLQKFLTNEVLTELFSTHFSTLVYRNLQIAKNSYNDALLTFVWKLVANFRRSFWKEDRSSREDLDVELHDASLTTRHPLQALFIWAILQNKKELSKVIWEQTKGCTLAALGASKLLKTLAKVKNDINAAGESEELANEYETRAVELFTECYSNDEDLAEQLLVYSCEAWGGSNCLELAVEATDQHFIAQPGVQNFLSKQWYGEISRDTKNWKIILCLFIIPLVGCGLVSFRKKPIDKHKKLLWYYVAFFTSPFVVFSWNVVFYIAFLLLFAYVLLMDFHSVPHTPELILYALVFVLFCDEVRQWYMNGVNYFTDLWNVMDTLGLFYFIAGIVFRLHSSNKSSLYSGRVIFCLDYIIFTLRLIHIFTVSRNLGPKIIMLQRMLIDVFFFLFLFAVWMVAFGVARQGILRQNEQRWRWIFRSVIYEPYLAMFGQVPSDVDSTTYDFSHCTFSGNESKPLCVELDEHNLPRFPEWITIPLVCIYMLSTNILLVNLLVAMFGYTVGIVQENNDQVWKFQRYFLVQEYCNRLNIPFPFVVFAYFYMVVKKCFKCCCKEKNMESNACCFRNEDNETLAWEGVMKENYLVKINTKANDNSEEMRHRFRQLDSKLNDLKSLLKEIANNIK

Row | SMILES | inhibition at 4 µM (OR8/OR7) [%] | inhibition at 4 µM (OR28/OR7) [%] | IC50 (OR28/OR7; Table B, read-out: IC50 OR28) [nM] | inhibition at 4 µM (Or47a/Or83b) [%] | inhibition at 4 µM (TRP channel (TRPM8)) [%] | IC50 (Or47a/Or83b; Table B, read-out: IC50 OR47a) [nM] | IC50 (OR8/OR7) [nM] | IC50 (OR28/OR7) [nM] | IC50 (Or47a/Or83b; [1]) [nM] | IC50 (TRP channel (TRPM8); [2]) [nM] | IC50 (OR8/OR7; Table B, read-out: IC50 OR8) [nM] | IC50 (Or47a/Or83b) [nM] | IC50 (TRP channel (TRPM8)) [nM]
1 | C=CCN(Cc1nccn1Cc1ccccc1F)C(=O)c1cccc(F)c1 [RU-0058232] | 26 to 50 | > 75 | < 100 | 26 to 50 | 26 to 50 |  |  |  |  |  |  |  | 
2 | CCOC(=O)C1CCCN(C(=O)c2csc(CSc3nnc(-c4cccc(OC)c4)n3-c3ccc(C)cc3)n2)C1 (centres unmarked) [RU-0071628] | 26 to 50 | > 75 | < 100 | 51 to 74 | < 25 | > 1000 |  |  |  |  |  |  | 
3 | CCNc1nc(NC(C)C)nc(SC)n1 [RU-T3] |  |  |  |  |  |  | 2000 to 20000 | 2000 to 20000 | 2000 to 20000 | > 20000 |  |  | 
4 | Cc1ccccc1C(=O)N[C@@H]1CCCCC1NC(=O)C1CCCN(S(=O)(=O)c2cc(Cl)ccc2Cl)C1 (some centres unmarked) [RU-0045691] | < 25 | > 75 | < 100 | 26 to 50 | < 25 |  |  |  |  |  |  |  | 
5 | O=C(CCC1CCN(C(=O)c2cccc(-n3cccn3)c2)CC1)Nc1ccccc1 [RU-0032465] | 51 to 74 | > 75 | < 100 | 51 to 74 | 26 to 50 | > 1000 |  |  |  |  | > 1000 |  | 
6 | COCCN(Cc1nccn1Cc1c(F)cccc1Cl)C(=O)CCc1ccccc1 [RU-0058550] | < 25 | > 75 | < 100 | 26 to 50 | < 25 |  |  |  |  |  |  |  | 
7 | CSc1nc(NC(C)C)nc(NC(C)C)n1 [RU-T2] |  |  |  |  |  |  | < 2000 | 2000 to 20000 | > 20000 | > 20000 |  |  | 
8 | Fc1ccccc1/C=N/Nc1nc(N2CCCCC2)nc(N2CCOCC2)n1 [RU-0018338] | < 25 | 51 to 74 | < 100 | 51 to 74 | 26 to 50 | < 100 |  |  |  |  |  |  | 
9 | Cc1cccc(Cn2ccnc2CN(C(=O)c2ccccc2F)C2CCCCC2)c1 [RU-0047851] | < 25 | 26 to 50 | < 100 | 26 to 50 | < 25 |  |  |  |  |  |  |  | 
10 | CCOC(=O)c1c(NC(C)=O)c(-c2ccc(OC)cc2)cn1Cc1ccccc1 [RU-0077733] | < 25 | 51 to 74 | < 100 | 26 to 50 | < 25 |  |  |  |  |  |  |  | 
11 | COCCCN(Cc1c(-c2ccccc2)noc1N1CCC(C)CC1)C(=O)c1ccccc1F [RU-0036876] | 51 to 74 | > 75 | < 100 | 51 to 74 | < 25 | > 1000 |  |  |  |  | > 1000 |  | 
12 | CCOC(=O)CCC(=O)N(CCc1ccccc1)CC(=O)Nc1cc(C(C)(C)C)nn1-c1ccccc1C [RU-0072462] | < 25 | > 75 | < 100 | 26 to 50 | < 25 |  |  |  |  |  |  |  | 
13 | O=C(c1cccnc1Cl)N1CCOC(COCc2c(Cl)cccc2Cl)C1 (centres unmarked) [RU-0050372] | < 25 | > 75 | < 100 | 26 to 50 | < 25 |  |  |  |  |  |  |  | 
14 | CN(C)c1ccc(C(=O)N2CCOC(COCc3ccccc3F)C2)cc1 (centres unmarked) [RU-0050325] | 26 to 50 | > 75 | < 100 | 26 to 50 | < 25 | > 1000 |  |  |  |  |  |  | 
15 | N#Cc1ccccc1C(=O)N1CCOC(COCc2c(Cl)cccc2Cl)C1 (centres unmarked) [RU-0050405] | 26 to 50 | > 75 | < 100 | 51 to 74 | < 25 | > 1000 |  |  |  |  |  |  | 
16 | Cc1nc(NC(C)C)nc(NC(C)C)n1 [RU-T6] |  |  |  |  |  |  | < 2000 | 20000 to 50000 |  |  |  | > 20000 | > 20000
17 | CCn1c(C)c(C(=O)CN(CC2CCCO2)C(=O)C2C[C@H]2c2ccccc2)c(C)c1C(=O)OC (some centres unmarked) [RU-0071273] | 26 to 50 | > 75 | < 100 | 26 to 50 | < 25 | > 1000 |  |  |  |  |  |  | 
18 | C=CCN(Cc1nccn1Cc1ccc(Cl)c(Cl)c1)C(=O)c1ccccc1F [RU-0047955] | < 25 | > 75 | < 100 | 26 to 50 | < 25 |  |  |  |  |  |  |  | 
19 | COc1cccc(-c2nnc(SCCCC(=O)N3CCN(C(=O)CC(C)(C)C)C(C)C3)n2-c2ccc(C)cc2)c1 (centres unmarked) [RU-0071818] | < 25 | > 75 | < 100 | 26 to 50 | < 25 |  |  |  |  |  |  |  | 
20 | O=C(c1cccc(F)c1)N(Cc1c(-c2ccccc2)noc1N1CCCC1)CC1CCCO1 (centres unmarked) [RU-0037434] | 51 to 74 | > 75 | < 100 | 51 to 74 | < 25 | > 1000 |  |  |  |  | > 1000 |  | 
21 | O=C(Cc1cccc(F)c1)N1CCOC(COCc2c(Cl)cccc2Cl)C1 (centres unmarked) [RU-0050398] | < 25 | > 75 | 100 to 1000 | 26 to 50 | < 25 |  |  |  |  |  |  |  | 
